≈ marks a conversion by molar mass, not a printed value. Positions of bridges follow the written chain, without caps; N, C: chain ends. Non-standard residues stand in square brackets, D forms with d. Residues, ends and D or L forms follow the SMILES beside them. *: point of attachment. Heptanoyl(6-Me) = CC(C)CCCCC(=O)*; Nonanoyl = CCCCCCCCC(=O)*; X1 = CC[C@H](C)CCCCC(=O)*; Dab = NCC[C@H](N)C(=O)O; Dap = NC[C@H](N)C(=O)O
Assays:
Acinetobacter baumannii = test system: Acinetobacter baumannii
In short: (§1)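 Lipopeptides, as trifluoroacetate salts, tested for MIC in CAMHB by CLSI broth microdilution, with polymyxin B (sulphate) as comparator.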

Enterobacter cloacae = test system: Enterobacter cloacae
In short: as §1

Klebsiella pneumoniae = test system: Klebsiella pneumoniae
In short: as §1

Pseudomonas aeruginosa = test system: Pseudomonas aeruginosa
In short: as §1

A. baumannii ATCC 19606 = assay: In vivo efficacy in mouse blood infection model (neutropenic Swiss mice); settings: compound, free base 4 mg/kg intravenously 2 h after inoculation, blood at 4 h
In short: (§2)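 Activity expressed as Δlog10 CFU/mL blood, treated minus saline control, 4 h after a single 4 mg/kg (free base) i.v. dose given 2 h post-infection. Bloodstream infection from i.v. early log-phase inoculum in Swiss mice made neutropenic by i.p. cyclophosphamide on days −4 (150 mg/kg) and −1 (100 mg/kg).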

[1] = test system: K. pneumoniae FADDI-KP032; assay: as above; settings: compound, free base 4 mg/kg intravenously 2 h after inoculation, blood at 4 h
In short: as §2

P. aeruginosa ATCC 27853 = assay: as above; settings: compound, free base 4 mg/kg intravenously 2 h after inoculation, blood at 4 h
In short: as §2

SMILES	MIC (Acinetobacter baumannii)	MIC (Klebsiella pneumoniae)	MIC (Pseudomonas aeruginosa)	Δ log (Treated-Control at 4 h) (A. baumannii ATCC 19606)	Δ log (Treated-Control at 4 h) [1]	Δ log (Treated-Control at 4 h) (P. aeruginosa ATCC 27853)	Minimum inhibitory concentration (MIC), Ab ATCC 17978 (Acinetobacter baumannii)	Minimum inhibitory concentration (MIC), Ab ATCC 19606 (Acinetobacter baumannii)	Minimum inhibitory concentration (MIC), Ab FADDI-AB034 (Acinetobacter baumannii)	Minimum inhibitory concentration (MIC), Ec FADDI-EC001 (Enterobacter cloacae)	Minimum inhibitory concentration (MIC), Ec FADDI-EC003 (Enterobacter cloacae)	Minimum inhibitory concentration (MIC), Ec FADDI-EC006 (Enterobacter cloacae)	Minimum inhibitory concentration (MIC), Pa ATCC 27853 (Pseudomonas aeruginosa)	Minimum inhibitory concentration (MIC), Pa FADDI-PA022 (Pseudomonas aeruginosa)	Minimum inhibitory concentration (MIC), Pa FADDI-PA025 (Pseudomonas aeruginosa)	also measured
CCCCCCCCC(=O)N[C@@H](CCN)C(=O)N[C@H](C(=O)N[C@@H](CN)C(=O)N[C@H]1CCNC(=O)[C@H]([C@@H](C)O)NC(=O)[C@H](CCN)NC(=O)[C@H](CCN)NC(=O)[C@H](C)NC(=O)[C@@H](CC(C)C)NC(=O)[C@H](CCN)NC1=O)[C@@H](C)O [Compound 132] (Nonanoyl-[Dab]T[Dap][Dab][Dab][dL]A[Dab][Dab]T; lactam 4-C)	0.5 µg/mL (≈ 0.449 µM)	0.25 µg/mL (≈ 0.225 µM)	0.5 µg/mL (≈ 0.449 µM)	−1.58 log10 CFU/mL	−3.16 log10 CFU/mL	−4.39 log10 CFU/mL										Minimum inhibitory concentration, Ab A ATCC 17978 (Acinetobacter baumannii): 0.5 µg/mL (≈ 0.449 µM); Minimum inhibitory concentration, Ab ATCC 19606 (Acinetobacter baumannii): 0.5 µg/mL (≈ 0.449 µM); Minimum inhibitory concentration, Ab FADDI-AB034 (Acinetobacter baumannii): 0.25 µg/mL (≈ 0.225 µM); Minimum inhibitory concentration, Ec FADDI-EC001 (Enterobacter cloacae): 0.25 µg/mL (≈ 0.225 µM); Minimum inhibitory concentration, Ec FADDI-EC003 (Enterobacter cloacae): <0.125 µg/mL; Minimum inhibitory concentration, Ec FADDI-EC006 (Enterobacter cloacae): <0.125 µg/mL; Minimum inhibitory concentration, Pa ATCC 27853 (Pseudomonas aeruginosa): 0.5 µg/mL (≈ 0.449 µM); Minimum inhibitory concentration, Pa FADDI-PA022 (Pseudomonas aeruginosa): 1 µg/mL (≈ 0.898 µM); Minimum inhibitory concentration, Pa FADDI-PA025 (Pseudomonas aeruginosa): 4 µg/mL (≈ 3.59 µM)
CC[C@H](C)CCCCC(=O)N[C@@H](CCN)C(=O)N[C@H](C(=O)N[C@H](CO)C(=O)N[C@H]1CCNC(=O)[C@H]([C@@H](C)O)NC(=O)[C@H](CCN)NC(=O)[C@H](CCN)NC(=O)[C@H]([C@@H](C)O)NC(=O)[C@@H](CC(C)C)NC(=O)[C@H](CCN)NC1=O)[C@@H](C)O [Compound 150, polymyxin D1] (X1-[Dab]T[dS][Dab][Dab][dL]T[Dab][Dab]T; lactam 4-C)	0.25 µg/mL (≈ 0.218 µM)	0.5 µg/mL (≈ 0.437 µM)	4 µg/mL (≈ 3.5 µM)	−1.46 log10 CFU/mL	−3.77 log10 CFU/mL	−0.29 log10 CFU/mL	0.25 µg/mL (≈ 0.218 µM)	0.25 µg/mL (≈ 0.218 µM)	0.25 µg/mL (≈ 0.218 µM)	0.5 µg/mL (≈ 0.437 µM)	0.5 µg/mL (≈ 0.437 µM)	0.5 µg/mL (≈ 0.437 µM)	4 µg/mL (≈ 3.5 µM)	4 µg/mL (≈ 3.5 µM)	>32 µg/mL	
CC(C)CCCCC(=O)N[C@@H](CCN)C(=O)N[C@H](C(=O)N[C@H](CO)C(=O)N[C@H]1CCNC(=O)[C@H]([C@@H](C)O)NC(=O)[C@H](CCN)NC(=O)[C@H](CCN)NC(=O)[C@H]([C@@H](C)O)NC(=O)[C@@H](CC(C)C)NC(=O)[C@H](CCN)NC1=O)[C@@H](C)O [Compound 151, polymyxin D2] ({Heptanoyl(6-Me)}-[Dab]T[dS][Dab][Dab][dL]T[Dab][Dab]T; lactam 4-C)	0.5 µg/mL (≈ 0.442 µM)	0.5 µg/mL (≈ 0.442 µM)	4 µg/mL (≈ 3.54 µM)	−1.59 log10 CFU/mL	−4.71 log10 CFU/mL	−0.40 log10 CFU/mL	0.25 µg/mL (≈ 0.221 µM)	0.5 µg/mL (≈ 0.442 µM)	0.5 µg/mL (≈ 0.442 µM)	0.25 µg/mL (≈ 0.221 µM)	0.25 µg/mL (≈ 0.221 µM)	0.25 µg/mL (≈ 0.221 µM)	4 µg/mL (≈ 3.54 µM)	4 µg/mL (≈ 3.54 µM)	>32 µg/mL	
CC[C@H](C)CCCCC(=O)N[C@@H](CCN)C(=O)N[C@H](C(=O)N[C@@H](CCN)C(=O)N[C@H]1CCNC(=O)[C@H]([C@@H](C)O)NC(=O)[C@H](CCN)NC(=O)[C@H](CCN)NC(=O)[C@H]([C@@H](C)O)NC(=O)[C@@H](CC(C)C)NC(=O)[C@H](CCN)NC1=O)[C@@H](C)O [Compound 152, polymyxin M1] (X1-[Dab]T[Dab][Dab][Dab][dL]T[Dab][Dab]T; lactam 4-C)	1 µg/mL (≈ 0.864 µM)	0.5 µg/mL (≈ 0.432 µM)	1 µg/mL (≈ 0.864 µM)	−1.61 log10 CFU/mL	−3.86 log10 CFU/mL	−3.24 log10 CFU/mL	1 µg/mL (≈ 0.864 µM)	1 µg/mL (≈ 0.864 µM)	1 µg/mL (≈ 0.864 µM)	0.5 µg/mL (≈ 0.432 µM)	0.5 µg/mL (≈ 0.432 µM)	0.25 µg/mL (≈ 0.216 µM)	1 µg/mL (≈ 0.864 µM)	1 µg/mL (≈ 0.864 µM)	32 µg/mL (≈ 27.6 µM)	
